Article PMC8688338 (Molecular microbiology, 2021)
Where “and” joins values, the source holds several entries; their conditions need not be identical. Equal values may be shown once. Read-outs that look alike come from different tables or passages of the source.

Columns and labels:
[1] = system: T. vaginalis; conditions: cited from earlier work
[2] = molecular target: TvagENT3 (Trichomonas vaginalis, UniProt A2E5Q3); experiment: [3H]-cytidine uptake by T. brucei TbAT1-KO cells expressing TvagENT3; conditions: for inhibition of cytidine uptake: 0.5 µM [3H]-cytidine
[3] = molecular target: low affinity pyrimidine nucleobase transporter of T. vaginalis; experiment: [3H]-uracil transport in T. vaginalis trophozoites; assay type: cell-based, Trichomonas vaginalis; conditions: for Ki: read-out: Ki,app
[4] = molecular target: T. vaginalis nucleoside transporters, Adenosine (HA); experiment: High affinity [3H]-adenosine transport in T. vaginalis trophozoites; assay type: cell-based, Trichomonas vaginalis
[5] = molecular target: T1, TvagENT6 (Trichomonas vaginalis, UniProt A2EMT5)
[6] = system: T. vaginalis adenine transporter; experiment: [3H]-adenine transport in T. vaginalis trophozoites; assay type: cell-based, Trichomonas vaginalis; conditions: for Km: read-out: Km,app
[7] = system: T. vaginalis nucleoside transporters, Adenosine (LA); experiment: Low affinity adenosine transport; assay type: cell-based, Trichomonas vaginalis; conditions: for inhibition of transport: 20 µM [3H]-adenosine, highest tested concentration: guanosine 250 µM, adenine 1 mM, hypoxanthine 1 mM, uracil 10 mM; for Ki: read-out: Ki,app, average and SEM; for Ki / EC50: inhibition of 20 µM [3H]-adenosine transport; for EC50: single experiment, Fig. 4
[8] = system: T. vaginalis nucleoside transporters, Thymidine (HA); experiment: Higher affinity [3H]-thymidine transport; assay type: cell-based, Trichomonas vaginalis; conditions: for EC50: single experiment
[9] = system: T. vaginalis nucleoside transporters, Cytidine (LA); experiment: Low affinity cytidine transport in T. vaginalis trophozoites; assay type: cell-based, Trichomonas vaginalis; conditions: Cytidine (LA); average and SEM
[10] = molecular target: T. vaginalis nucleoside transporters, Uridine (HA); experiment: [3H]-uridine transport in T. vaginalis trophozoites; assay type: cell-based, Trichomonas vaginalis; conditions: for Km: read-out: Km,app, Uridine (HA)
[11] = molecular target: T. vaginalis nucleoside transporters, Guanosine (HA); experiment: [3H]-guanosine transport in T. vaginalis trophozoites; assay type: cell-based, Trichomonas vaginalis; conditions: for Ki: read-out: Ki,app, inhibition of [3H]-guanosine transport, monophasic sigmoid curve
[12] = system: T. vaginalis nucleoside transporters, Cytidine (HA); experiment: High affinity [3H]-cytidine transport in T. vaginalis trophozoites; assay type: cell-based, Trichomonas vaginalis; conditions: for Km: read-out: Km,app, […] [3H]-cytidine; for Ki: read-out: Ki,app, inhibition of […] [3H]-cytidine transport, 30 s
[13] = system: T. vaginalis trophozoites; experiment: Preliminary uptake of cytosine and thymine by T. vaginalis trophozoites; assay type: cell-based, Trichomonas vaginalis; conditions: preliminary experiments
[14] = molecular target: T. vaginalis nucleoside transporters, Inosine (LA); experiment: Low affinity [3H]-inosine transport in T. vaginalis trophozoites; assay type: cell-based, Trichomonas vaginalis; conditions: for Ki: read-out: Ki,app; for Km: read-out: Km,app
[15] = system: T. vaginalis nucleoside transporters; conditions: ref Harris et al., 1988; cited from earlier work
[16] = molecular target: T1, TvagENT6; experiment: cell-based
[17] = system: Nc1ccn([C@@H]2O[C@H](CO)[C@@H](O)[C@H]2O)c(=O)n1; experiment: cells, lysate or membranes
[18] = read-out: Ki,app, inhibition of […] [3H]-adenosine transport, 30 s, monophasic, average and SEM
[19] = single experiment, Fig. 6E inset
[20] = inhibition of 0.5 µM [3H]-uracil uptake
[21] = inhibition of 1 µM [3H]-inosine uptake, average and SEM
[22] = inhibition of 0.125 µM [3H]-thymidine uptake, Fig. 3C/D
[23] = read-out: Ki,app, low affinity component

2’F,2’-deoxyadenosine
antitrichomonal activity ([1]; ref Shokar et al., 2012): strong antitrichomonal activity | Hill slope [2]: −0.97± 0.15 | Ki ([2]; read-out: Ki,app): 1110 ± 380 nM

Nc1ncnc2c1ncn2[C@@H]1O[C@H](CO)[C@@H](O)[C@@H]1F [2′-F,2′-deoxyarabinoadenosine]
antitrichomonal activity ([1]; ref Shokar et al., 2012): strong antitrichomonal activity

O=c1[nH]cc(F)c(=O)[nH]1 [5F-uracil]
Ki [3]: 265 ± 57 µM

Nc1ncnc2c1ncn2[C@@H]1O[C@H](CO)[C@@H](O)[C@@H]1O [adenine arabinoside]
antitrichomonal activity ([1]; ref Shokar et al., 2012): strong antitrichomonal activity

Nc1ncnc2nc[nH]c12 [adenine]
Ki ([4]; read-out: Ki,app, inhibition of […] [3H]-adenosine transport): > 1000 µM | Ki [4, 18]: ~1000 µM | inhibition of transporter ([5]; adenine up to 1 mM): not significantly inhibited | EC50 [6]: 350 nM | rate of transport ([6]; 50 nM [3H]-adenine): 0.00073 pmol(10^7 cells)^−1s^−1 | rate of transport in the presence of unlabelled permeant ([6]; 50 nM [3H]-adenine + 1 mM unlabelled adenine): 0.000097 pmol(10^7 cells)^−1s^−1 | inhibition of uptake ([6]; 50 nM [3H]-adenine by 1 mM unlabelled adenine): 86.7% | Vmax ([6]; 50 nM [3H]-adenine, average): 0.091 ± 0.027 pmol(10^7 cells)^−1s^−1 | rate of transport ([6]; 1 µM [3H]-adenine): 0.0164 pmol(10^7 cells)^−1s^−1 and 0.016 pmol(10^7 cells)^−1s^−1 | rate of transport in the presence of unlabelled permeant ([6]; 1 µM [3H]-adenine + 1 mM unlabelled adenine): 0.00429 pmol(10^7 cells)^−1s^−1 | inhibition of uptake ([6]; 1 µM [3H]-adenine by 1 mM unlabelled adenine): 73.8% | EC50 ([6]; inhibition of [3H]-adenine uptake, single experiment, Fig. 6E): 270 nM | EC50 ([6]; read-out: EC50, high affinity component, two transporter model, Fig. 6F): 230 nM | EC50 ([6]; read-out: EC50, lower affinity component, two transporter model, Fig. 6F, large degree of uncertainty): 17000 nM | Km ([6]; 50 nM [3H]-adenine, high-affinity system, average): 410 ± 97 nM | Km [6, 19]: 230 nM | Vmax [6, 19]: 0.155 pmol(10^7 cells)^−1s^−1 | share of flux of high affinity component ([6]; two transporter model, Fig. 6F): 81% | inhibition of transport [7]: ≤ 50% | Ki [7]: > 1000 µM | inhibition of transport ([8]; 125 nM [3H]-thymidine, nucleobase at 1 mM): ≤ 50%

Nc1ccn([C@@H]2O[C@H](CO)[C@@H](O)[C@H]2O)c(=O)n1 [cytidine]
Vmax [9]: 6.7 ± 1.8 pmol(10^7 cells)^−1s^−1 | Ki ([10]; read-out: Ki,app, inhibition of 0.5 µM [3H]-uridine transport, 30 s, average and SEM): 15.6 ± 2.3 µM | Ki [4, 18]: 17.9 ± 4.4 µM | Ki ([11]; average and SEM): 18.6 ± 0.9 µM | inhibition of uptake ([12]; 0.25 µM [3H]-cytidine by 1 mM unlabelled cytidine): 97.0% | rate of transport ([12]; 0.25 µM [3H]-cytidine, no inhibitor): 0.026 ± 0.001 pmol(10^7 cells)^−1s^−1 | Vmax ([12]; Cytidine (HA), average and SEM): 0.83 ± 0.06 pmol(10^7 cells)^−1s^−1 | Km ([12]; Cytidine (HA), average and SEM): 7.19 ± 1.77 µM | Km ([12]; Cytidine (HA), average and SEM, listed as Cytidine): 7.2 ± 1.8 µM | EC50 [7]: 290 µM | Ki [7]: 116 ± 5 µM | EC50 ([8]; read-out: EC50, higher affinity component, 0.125 µM [3H]-thymidine, 2-transporter plot, Fig. 3D): 2.86 µM | EC50 ([8]; read-out: EC50, lower affinity component, 0.125 µM [3H]-thymidine, 2-transporter plot, Fig. 3D): 322 µM | inhibition of cytidine uptake ([2]; 1 mM unlabelled cytidine): strongly inhibited | Vmax ([2]; single experiment, Fig. 10D inset): 0.042 pmol(10^7 cells)^−1s^−1 | Hill slope ([2]; single experiment, Fig. 10D-F): −0.99

Nc1cc[nH]c(=O)n1 [cytosine]
Ki [3, 20]: 334 ± 73 µM | saturable uptake ([13]; cytosine 0.25 µM over 120 s): not significant

Nc1ncnc2c([C@@H]3O[C@H](CO)[C@@H](O)[C@H]3O)[nH]nc12 [formycin A]
antitrichomonal activity ([1]; ref Munagala and Wang, 2003): strong antitrichomonal activity

Nc1nc2c(ncn2[C@@H]2O[C@H](CO)[C@@H](O)[C@H]2O)c(=O)[nH]1 [guanosine]
Ki [14, 21]: 7.41 ± 2.92 µM | Ki ([14]; inhibition of 1 µM [3H]-inosine uptake, average and SEM, listed as Guanosine): 7.4 ± 2.9 µM | Ki [4, 18]: 12.2 ± 2.4 µM | rate of transport ([11]; 1 µM [3H]-guanosine): 0.22 ± 0.01 pmol(10^7 cells)^−1s^−1 | rate of transport in the presence of unlabelled permeant ([11]; 1 µM [3H]-guanosine + 0.25 mM unlabelled guanosine): 0.0030 ± 0.0004 pmol(10^7 cells)^−1s^−1 | reduction of uptake ([11]; 1 µM [3H]-guanosine by 250 µM guanosine): 98.6% | Vmax ([11]; Guanosine (HA), average and SEM): 0.91 ± 0.25 pmol(10^7 cells)^−1s^−1 | Km ([11]; read-out: Km,app, Guanosine (HA), average and SEM): 9 ± 0.6 µM | Ki ([12]; average and SEM): 16700 ± 2600 nM | Km [15]: 13.9 µM | inhibition of transport [7]: ≤ 50% | Ki [7]: > 250 µM | EC50 [8, 22]: 51.2 µM | Hill slope [2]: −1.33 ± 0.09 | Ki [2]: 2900 ± 140 nM

O=c1[nH]cnc2c1ncn2[C@@H]1O[C@H](CO)[C@@H](O)[C@H]1O [inosine]
inhibition of uracil transport ([3]; uridine, thymidine up to 10 mM, adenosine, inosine up to 1 mM): unable to inhibit | Ki [10, 23]: 231 ± 23 µM | rate of uptake ([14]; 1 µM [3H]-inosine): 0.0081 ± 0.0002 pmol(10^7 cells)^−1s^−1 | inhibition of uptake ([14]; 1 µM [3H]-inosine time course, 1 mM unlabelled nucleoside): 88% | rate of uptake ([14]; 1 µM [3H]-inosine, listed as Inosine): 0.0081 pmol(10^7 cells)^−1s^−1 | Vmax ([14]; Inosine (LA), average and SEM): 2.25 ± 0.37 pmol(10^7 cells)^−1s^−1 | EC50 ([14]; inhibition of 1 µM [3H]-inosine uptake, single experiment, Fig. 5B): 67.1 µM | Km ([14]; Inosine (LA), 1 µM [3H]-inosine, average and SEM): 196 ± 18 µM | Km ([14]; single experiment, Fig. 5B inset): 157 µM | Ki [4, 23]: 347 ± 127 µM | Ki [16]: 40 ± 9.5 µM | Hill slope [2]: −1.08 ± 0.02 | inhibition of cytidine uptake ([2]; inhibitor at 400 µM): completely | Hill slope ([2]; single experiment, Fig. 10D-F): −1.07

Cc1c[nH]c(=O)[nH]c1=O [thymine]
Ki [3, 20]: 57 ± 8 µM | saturable uptake ([13]; thymine 0.5 µM over 120 s): not significant

O=c1ccn([C@@H]2O[C@H](CO)[C@@H](O)[C@H]2O)c(=O)[nH]1 [uridine]
Km ([10]; 30 s, average and SEM): 5.49 ± 1.8 µM | Km ([10]; 30 s, average and SEM, listed as Uridine): 5.5 ± 1.8 µM | Ki [14, 21]: 3.6 ± 1.1 µM | Ki [4, 18]: 3.7 ± 1 µM | Vmax ([5]; [3H]-uridine in the presence of 250 µM uracil, average): 0.092 ± 0.021 pmol(10^7 cells)^−1s^−1 | Ki ([11]; average and SEM): 7.8 ± 1.3 µM | Ki ([12]; average and SEM): 1980 ± 500 nM | Ki ([12]; average and SEM, listed as Uridine): 2000 ± 500 nM | Km [15]: 2.5 µM | EC50 [7]: 519 µM | Ki [7]: 376 ± 63 µM | EC50 [8, 22]: 15.3 µM | Ki [2]: 11300 ± 1800 nM | inhibition of cytidine uptake ([2]; inhibitor at 400 µM): completely | Hill slope ([2]; inhibition of 0.5 µM [3H]-cytidine transport by TvagENT3, average): −0.98 ± 0.08 | Hill slope ([2]; single experiment, Fig. 10D-F): −0.93

TvagENT3 (Trichomonas vaginalis G3)
Km ([17]; other: 0.5 µM [3H]-cytidine, TvagENT3 in T. brucei TbAT1-KO, average): 10.2 ± 2.6 µM | Km ([17]; other: single experiment, Fig. 10D inset): 10.9 µM
